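All cell lines were grown in 96-well plates and treated with compound for 48 hours. At the GI50, growth is halved. TGI marks complete inhibition of growth.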
What was measured:
Test in all cases: growth of human tumour cells (NCI), 48 h
ACHN renal = tested on: ACHN renal
BT-549 breast = tested on: BT-549 breast
COLO 205 colon = tested on: COLO 205 colon
KM12 colon = tested on: KM12 colon
MALME-3M melanoma = tested on: MALME-3M melanoma
NCI-H460 lung = tested on: NCI-H460 lung
OVCAR-5 ovarian = tested on: OVCAR-5 ovarian
OVCAR-8 ovarian = tested on: OVCAR-8 ovarian
SW-620 colon = tested on: SW-620 colon
HOP-92 NSCLC = tested on: HOP-92 NSCLC

CCCn1cnc2c(SCc3ccccc3)nc(N)nc21
GI50 (ACHN renal): > 100 µM
TGI (ACHN renal): > 100 µM
GI50 (BT-549 breast): 51.9 µM
TGI (BT-549 breast): > 100 µM
GI50 (COLO 205 colon): > 100 µM
TGI (COLO 205 colon): > 100 µM
GI50 (KM12 colon): > 100 µM
TGI (KM12 colon): > 100 µM
GI50 (MALME-3M melanoma): > 100 µM
TGI (MALME-3M melanoma): > 100 µM
GI50 (NCI-H460 lung): 42.2 µM
TGI (NCI-H460 lung): > 100 µM
GI50 (OVCAR-5 ovarian): > 100 µM
TGI (OVCAR-5 ovarian): > 100 µM
GI50 (OVCAR-8 ovarian): 71.8 µM
TGI (OVCAR-8 ovarian): > 100 µM
GI50 (SW-620 colon): > 100 µM
TGI (SW-620 colon): > 100 µM

O=[N+]([O-])C1C2C=CC(C2)[C@H]1c1ccc(Cl)cc1Cl (some centres undefined)
TGI (ACHN renal): > 100 µM
TGI (HOP-92 NSCLC): > 100 µM
TGI (KM12 colon): > 100 µM
TGI (MALME-3M melanoma): > 100 µM
TGI (NCI-H460 lung): > 100 µM
TGI (OVCAR-5 ovarian): > 100 µM
TGI (OVCAR-8 ovarian): > 100 µM
TGI (SW-620 colon): > 100 µM

NS(=O)(=O)c1ccc(NC(=O)c2cccn3c(=O)c4ccccc4nc23)cc1
TGI (ACHN renal): > 100 µM
TGI (COLO 205 colon): > 100 µM
TGI (HOP-92 NSCLC): > 100 µM
TGI (KM12 colon): > 100 µM
TGI (MALME-3M melanoma): > 100 µM
TGI (NCI-H460 lung): > 100 µM
TGI (OVCAR-8 ovarian): > 100 µM
TGI (SW-620 colon): > 100 µM

COc1cc2cccc(N=Cc3c(Br)ccc(OC)c3OC(C)C)c2cc1OC
TGI (ACHN renal): > 100 µM
TGI (COLO 205 colon): > 100 µM
TGI (KM12 colon): > 100 µM
TGI (MALME-3M melanoma): > 100 µM
TGI (NCI-H460 lung): > 100 µM
TGI (OVCAR-5 ovarian): > 100 µM
TGI (OVCAR-8 ovarian): > 100 µM
TGI (SW-620 colon): > 100 µM

CC(=O)OCCC(O[Si](c1ccccc1)(c1ccccc1)C(C)(C)C)C(C)(C)O (centres undefined)
TGI (ACHN renal): > 100 µM
TGI (COLO 205 colon): 30.3 µM
TGI (HOP-92 NSCLC): 65.1 µM
TGI (KM12 colon): 55 µM
TGI (MALME-3M melanoma): > 100 µM
TGI (NCI-H460 lung): > 100 µM
TGI (OVCAR-5 ovarian): > 100 µM
TGI (OVCAR-8 ovarian): > 100 µM
TGI (SW-620 colon): > 100 µM

NC(=O)C(=O)n1ncc(Cl)c(Cl)c1=O
TGI (ACHN renal): 55.7 µM
TGI (COLO 205 colon): > 51.1 µM
TGI (HOP-92 NSCLC): > 57.8 µM
TGI (KM12 colon): 62.5 µM
TGI (MALME-3M melanoma): 38.7 µM
TGI (NCI-H460 lung): > 100 µM
TGI (OVCAR-5 ovarian): 63.1 µM
TGI (OVCAR-8 ovarian): 65.9 µM
TGI (SW-620 colon): 35.3 µM

C=CC1=CC(C)C[C@]1(O)C(=O)OC (some centres undefined)
GI50 (ACHN renal): > 100 µM
GI50 (COLO 205 colon): > 100 µM
GI50 (HOP-92 NSCLC): > 100 µM
GI50 (KM12 colon): > 100 µM
GI50 (MALME-3M melanoma): > 100 µM
GI50 (NCI-H460 lung): > 100 µM
GI50 (OVCAR-5 ovarian): > 100 µM
GI50 (OVCAR-8 ovarian): > 100 µM
GI50 (SW-620 colon): < 0.01 µM

Cc1ccccc1NC(=O)C(=O)CC(=O)c1ccc([N+](=O)[O-])cc1
TGI (ACHN renal): > 100 µM
TGI (COLO 205 colon): > 100 µM
TGI (HOP-92 NSCLC): > 100 µM
TGI (KM12 colon): > 100 µM
TGI (MALME-3M melanoma): > 100 µM
TGI (NCI-H460 lung): > 100 µM
TGI (OVCAR-5 ovarian): > 100 µM
TGI (OVCAR-8 ovarian): > 100 µM
TGI (SW-620 colon): > 100 µM

C/C(=N/NC(=O)CC(=O)N(C(=O)c1ccccc1Cl)c1ccc(C)cc1)c1cc2ccccc2oc1=O
TGI (ACHN renal): > 100 µM
TGI (COLO 205 colon): > 100 µM
TGI (HOP-92 NSCLC): > 100 µM
TGI (KM12 colon): > 100 µM
TGI (MALME-3M melanoma): > 100 µM
TGI (NCI-H460 lung): > 100 µM
TGI (OVCAR-5 ovarian): > 100 µM
TGI (OVCAR-8 ovarian): > 100 µM
TGI (SW-620 colon): > 100 µM

CC(C)(C)[Si](C)(C)OCC1OC(n2cnc3c(N)ncnc32)C(O)C1O (centres undefined)
TGI (ACHN renal): > 100 µM
TGI (BT-549 breast): > 100 µM
TGI (COLO 205 colon): > 100 µM
TGI (KM12 colon): > 100 µM
TGI (MALME-3M melanoma): > 100 µM
TGI (NCI-H460 lung): > 100 µM
TGI (OVCAR-5 ovarian): > 100 µM
TGI (OVCAR-8 ovarian): > 100 µM
TGI (SW-620 colon): > 100 µM

O=C(Nc1cc(S(=O)(=O)c2ccc(Cl)cc2)ccc1Cl)c1cc(I)cc(I)c1O
GI50 (ACHN renal): 17.1 µM
TGI (ACHN renal): 36 µM
GI50 (BT-549 breast): 19.9 µM
TGI (BT-549 breast): 39.8 µM
GI50 (COLO 205 colon): 15.8 µM
TGI (COLO 205 colon): 29.6 µM
GI50 (KM12 colon): 14.2 µM
TGI (KM12 colon): 27.4 µM
GI50 (MALME-3M melanoma): 21.1 µM
TGI (MALME-3M melanoma): 48.5 µM
GI50 (NCI-H460 lung): 15.2 µM
TGI (NCI-H460 lung): 38.5 µM
GI50 (OVCAR-5 ovarian): 18.3 µM
TGI (OVCAR-5 ovarian): 38.2 µM
GI50 (OVCAR-8 ovarian): 18.6 µM
TGI (OVCAR-8 ovarian): 41.7 µM
GI50 (SW-620 colon): 16.7 µM
TGI (SW-620 colon): 32 µM

O=C(O)[C@@H]1CCCC[C@@H]1C(=O)N(C1CCCCC1)C1CCCCC1
TGI (ACHN renal): > 100 µM
TGI (COLO 205 colon): > 100 µM
TGI (HOP-92 NSCLC): > 100 µM
TGI (KM12 colon): > 100 µM
TGI (MALME-3M melanoma): > 100 µM
TGI (NCI-H460 lung): > 100 µM
TGI (OVCAR-5 ovarian): > 100 µM
TGI (OVCAR-8 ovarian): > 100 µM
TGI (SW-620 colon): > 100 µM

O=C(/C=C/c1cn(-c2ccccc2)nc1-c1ccc([N+](=O)[O-])cc1)c1ccc(Cl)cc1
GI50 (ACHN renal): 3.64 µM
TGI (ACHN renal): > 43.6 µM
GI50 (BT-549 breast): 3.13 µM
TGI (BT-549 breast): > 32.1 µM
GI50 (HOP-92 NSCLC): 3.36 µM
TGI (HOP-92 NSCLC): 70.1 µM
GI50 (MALME-3M melanoma): 2.44 µM
TGI (MALME-3M melanoma): 6.59 µM
GI50 (OVCAR-5 ovarian): > 100 µM
TGI (OVCAR-5 ovarian): > 100 µM
GI50 (OVCAR-8 ovarian): 6.33 µM
TGI (OVCAR-8 ovarian): > 100 µM

C/C(=N/O)c1ccc2c(c1)C(=NO)c1cc(/C(C)=N/O)ccc1-2
TGI (ACHN renal): 20.8 µM
TGI (COLO 205 colon): 38.5 µM
TGI (HOP-92 NSCLC): 47.4 µM
TGI (KM12 colon): 32.9 µM
TGI (MALME-3M melanoma): 23 µM
TGI (NCI-H460 lung): 31.8 µM
TGI (OVCAR-5 ovarian): 31.6 µM
TGI (OVCAR-8 ovarian): 32.3 µM
TGI (SW-620 colon): 34.8 µM

NC(N)=N/N=C/c1c(-c2ccc(Cl)c([N+](=O)[O-])c2)nc2n1CCS2
GI50 (ACHN renal): 15.7 µM
TGI (ACHN renal): 37.2 µM
GI50 (BT-549 breast): 21.5 µM
TGI (BT-549 breast): 50.2 µM
GI50 (COLO 205 colon): 15.1 µM
TGI (COLO 205 colon): 39.8 µM
GI50 (KM12 colon): 12.4 µM
TGI (KM12 colon): 25.7 µM
GI50 (NCI-H460 lung): 11.6 µM
TGI (NCI-H460 lung): > 100 µM
GI50 (OVCAR-5 ovarian): 14.6 µM
TGI (OVCAR-5 ovarian): 27.8 µM
GI50 (OVCAR-8 ovarian): 8.89 µM
TGI (OVCAR-8 ovarian): > 100 µM

CC(C)(C)c1cc(CCC(=O)Nc2ccc(Cl)cc2Cl)nc(N)n1
TGI (ACHN renal): > 100 µM
TGI (COLO 205 colon): > 100 µM
TGI (HOP-92 NSCLC): > 100 µM
TGI (KM12 colon): > 100 µM
TGI (MALME-3M melanoma): > 100 µM
TGI (NCI-H460 lung): > 100 µM
TGI (OVCAR-5 ovarian): > 100 µM
TGI (OVCAR-8 ovarian): > 100 µM
TGI (SW-620 colon): > 100 µM

CCC(=O)c1cc([N+](=O)[O-])c(Br)s1
GI50 (ACHN renal): 1.71 µM
TGI (ACHN renal): 3.26 µM
GI50 (COLO 205 colon): 1.99 µM
TGI (COLO 205 colon): 3.56 µM
GI50 (HOP-92 NSCLC): 1.96 µM
TGI (HOP-92 NSCLC): 4.8 µM
GI50 (KM12 colon): 11.6 µM
TGI (KM12 colon): 24.2 µM
GI50 (MALME-3M melanoma): 1.85 µM
TGI (MALME-3M melanoma): 3.87 µM
GI50 (NCI-H460 lung): 6.17 µM
TGI (NCI-H460 lung): 20.9 µM
GI50 (OVCAR-5 ovarian): 16.6 µM
TGI (OVCAR-5 ovarian): 32.1 µM
GI50 (OVCAR-8 ovarian): 2.23 µM
TGI (OVCAR-8 ovarian): 5.04 µM
GI50 (SW-620 colon): 1.65 µM
TGI (SW-620 colon): 3.19 µM

Fc1cc(-c2nnc3n2N=C(c2ccc(Cl)cc2Cl)CS3)c(Cl)cc1Cl
GI50 (ACHN renal): 66.6 µM
TGI (ACHN renal): > 100 µM
GI50 (COLO 205 colon): 32.9 µM
TGI (COLO 205 colon): > 100 µM
GI50 (HOP-92 NSCLC): 54.2 µM
TGI (HOP-92 NSCLC): > 100 µM
GI50 (KM12 colon): 41.9 µM
TGI (KM12 colon): > 100 µM
GI50 (MALME-3M melanoma): 26.6 µM
TGI (MALME-3M melanoma): 94.4 µM
GI50 (NCI-H460 lung): 37.3 µM
TGI (NCI-H460 lung): > 100 µM
GI50 (OVCAR-5 ovarian): > 100 µM
TGI (OVCAR-5 ovarian): > 100 µM
GI50 (OVCAR-8 ovarian): 57.3 µM
TGI (OVCAR-8 ovarian): > 100 µM
GI50 (SW-620 colon): 36.8 µM
TGI (SW-620 colon): > 100 µM

COc1ccc2[nH]c3c(=O)[nH]ncc3c2c1
TGI (ACHN renal): > 100 µM
TGI (COLO 205 colon): > 100 µM
TGI (HOP-92 NSCLC): > 100 µM
TGI (KM12 colon): > 100 µM
TGI (MALME-3M melanoma): > 100 µM
TGI (NCI-H460 lung): > 100 µM
TGI (OVCAR-5 ovarian): > 100 µM
TGI (OVCAR-8 ovarian): > 100 µM
TGI (SW-620 colon): > 100 µM

CCOC(=O)C[C@@]12CCCNC1(C)CCc1ccccc12 (some centres undefined)
TGI (ACHN renal): > 100 µM
TGI (COLO 205 colon): > 100 µM
TGI (KM12 colon): > 100 µM
TGI (MALME-3M melanoma): > 100 µM
TGI (NCI-H460 lung): > 100 µM
TGI (OVCAR-8 ovarian): > 100 µM
TGI (SW-620 colon): > 100 µM
